SMILES strings stand for the structures.

Series [1] has as its system Spodoptera littoralis (Egyptian Cotton Leaf Worm). The series can be described thus: Example B4: Activity against Spodoptera littoralis (sprayed cotton leaf discs). Type of series: in vivo. Particulars: foliar, 72 h, application rate of 200 ppm, L1 larvae, 3 days after infestation. Here is the method: Example B4: Activity Against Spodoptera littoralis (Egyptian Cotton Leaf Worm)
Cotton leaf discs were placed on agar in 24-well microtiter plates and sprayed with aqueous test solutions prepared from 10′000 ppm DMSO stock solutions. After drying the leaf discs were infested with five L1 larvae. The samples were assessed for mortality, anti-feedant effect, and growth inhibition in comparison to untreated samples 3 days after infestation. Control of Spodoptera littoralis by a test sample is given when at least one of the categories mortality, anti-feedant effect, and growth inhibition is higher than the untreated sample.

Series [2] deals with Euschistus heros (Neotropical Brown Stink Bug). Nature of the series: Example B7: Activity against Euschistus heros (sprayed soybean leaves). Type of series: in vivo. Particulars: 120 h, application rate of 200 ppm, N2 nymphs, 5 days after infestation, read-out: effect in at least one of the two categories (mortality or growth inhibition). Here is the method:
Example B7: Activity Against Euschistus heros (Neotropical Brown Stink Bug)
Soybean leaves on agar in 24-well microtiter plates were sprayed with aqueous test solutions prepared from 10′000 ppm DMSO stock solutions. After drying the leaves were infested with N2 nymphs. The samples were assessed for mortality and growth inhibition in comparison to untreated samples 5 days after infestation.

Series [3] deals with Myzus persicae (Green Peach Aphid). Nature of the series: Example B8: Activity against Myzus persicae (sprayed sunflower leaf discs). The format is in vivo. Particulars: foliar, 144 h, application rate of 200 ppm, mixed ages, 6 days after infestation. Here is the method: Example B8: Activity Against Myzus persicae (Green Peach Aphid)
Sunflower leaf discs were placed onto agar in a 24-well microtiter plate and sprayed with aqueous test solutions prepared from 10′000 ppm DMSO stock solutions. After drying, the leaf discs were infested with an aphid population of mixed ages. The samples were assessed for mortality 6 days after infestation.

Series [4] relates to Plutella xylostella (Diamond-Back Moth). Nature of the series: Example B3: Plutella xylostella larvicide, feeding/contact activity, preventative (artificial diet, 96-well). The format is in vivo. Particulars: 216 h, application rate of 500 ppm, mortality assessed 9 days after treatment. Here is the method: Example B3: Plutella xylostella (Diamond-Back Moth) larvicide, feeding/contact activity, preventative Artificial diet was dispensed into a 96-well microtiter plate and treated with aqueous test solutions prepared from 10′000 ppm DMSO stock solutions. Eggs were suspended above the treated diet and first instar larvae hatched onto the diet. Mortality was assessed 9 days after treatment.

The test system of series [5] is Spodoptera littoralis (Egyptian Cotton Leaf Worm). The series can be described thus: Example B5: Activity against Spodoptera littoralis (systemic, lettuce grown on treated agar). Type of series: in vivo. Particulars: 144 h, test rate of 12.5 ppm, 6 days after infestation, uptake by lettuce roots, read-out: effect in at least one of the three categories (mortality, anti-feeding, or growth inhibition). The source says:
Example B5: Activity Against Spodoptera littoralis (Egyptian Cotton Leaf Worm)
Test compounds were applied by pipette from 10′000 ppm DMSO stock solutions into 24-well plates and mixed with agar. Lettuce seeds were placed onto the agar and the multi well plate was closed by another plate which contained also agar. After 7 days the compound was absorbed by the roots and the lettuce grew into the lid plate. The lettuce leaves were then cut off into the lid plate. Spodoptera eggs were pipetted through a plastic stencil onto a humid gel blotting paper and the lid plate was closed with it. The samples were assessed for mortality, anti-feedant effect and growth inhibition in comparison to untreated samples 6 days after infestation.

The test system of series [6] is Plutella xylostella (Diamond Back Moth). The series can be described thus: Example B11: Activity against Plutella xylostella (artificial diet, 24-well, L2 larvae). Type of series: in vivo. Particulars: 120 h, application rate of 200 ppm, 5 days after infestation, read-out: effect in at least one of the two categories (mortality or growth inhibition). Here is the method:
Example B11: Activity Against Plutella xylostella (Diamond Back Moth)
24-well microtiter plates with artificial diet were treated with aqueous test solutions prepared from 10′000 ppm DMSO stock solutions by pipetting. After drying, the plates were infested with L2 larvae (10 to 15 per well). The samples were assessed for mortality and growth inhibition in comparison to untreated samples 5 days after infestation.

Series [7] concerns Diabrotica balteata (Corn Root Worm). Nature of the series: Example B6: Activity against Diabrotica balteata (sprayed maize sprouts). Particulars: 96 h, application rate of 200 ppm, L2 larvae, 4 days after infestation, read-out: effect in at least one of the two categories (mortality or growth inhibition). The format is in vivo. Here is the method: Example B6: Activity Against Diabrotica Balteata (Corn Root Worm)
Maize sprouts placed onto an agar layer in 24-well microtiter plates were treated with aqueous test solutions prepared from 10′000 ppm DMSO stock solutions by spraying. After drying, the plates were infested with L2 larvae (6 to 10 per well). The samples were assessed for mortality and growth inhibition in comparison to untreated samples 4 days after infestation.

For orientation: melting point means the temperature of the solid-liquid transition. Consider `CCSc1cc(C(F)(F)F)cnc1-c1cc(-c2ccc(C(F)(F)F)cc2)on1` [Compound P11, 3-(3-ethylsulfanyl-5-(trifluoromethyl)pyridin-2-yl)-5-(4-(trifluoromethyl)phenyl)-isoxazole], for which the melting point was 145 to 146 °C.

For the compound `CCS(=O)(=O)c1ccc(Cl)nc1-c1cc(-c2cc(C(F)(F)F)ccn2)n(C)n1` [Compound P29], the melting point lay in the range of 255 to 257 °C.

Turning to `CCS(=O)(=O)c1cc(C(F)(F)F)cnc1-c1cn(-c2ccc(C(F)(F)F)cc2)nn1` [Compound P2, 3-(ethylsulfonyl)-5-(trifluoromethyl)-2-(1-(4-(trifluoromethyl)phenyl)-1H-1,2,3-triazol-4-yl)pyridine], the melting point lay in the range of 212 to 213 °C.

`CCS(=O)(=O)c1ccc(-n2cncn2)nc1-c1cc(-c2ccc(C(F)(F)F)nc2)n(C)n1` [Compound P35, 3-ethylsulfonyl-2-[1-methyl-5-[6-(trifluoromethyl)-3-pyridyl]pyrazol-3-yl]-6-(1,2,4-triazol-1-yl)pyridine] came in with a melting point of 175 to 177 °C.

For `CCS(=O)(=O)c1cc(C(F)(F)F)cnc1-c1nnc(-c2ccc(C(F)(F)F)cc2)o1` [Compound P3], the percent control (mortality, anti-feedant effect or growth inhibition) at 200 ppm in series [1] is ≥ 80%.

In general, mortality refers to the share of the test organisms that died. Low values mean a weak lethal effect, high ones a strong lethal effect. What is called pest or weed control is how far the test organism was held down. Lower therefore signals a weak effect. With `CCS(=O)(=O)c1cccnc1-c1cn(-c2cccc(C(F)(F)F)c2)nn1` [Compound P15], the percent effect (mortality or growth inhibition) at 200 ppm in series [2] and in series [6] was ≥ 80% in each case. Besides, in series [1], the percent control (mortality, anti-feedant effect or growth inhibition) at 200 ppm is ≥ 80%. The mortality at 200 ppm in series [3] was ≥ 80%. The pest or weed control at 500 ppm in series [4] was ≥ 70%. The percent effect (mortality, anti-feeding or growth inhibition) at 12.5 ppm in series [5] was ≥ 80%. In addition, in series [7], the effect (mortality or growth inhibition) at 200 ppm is ≥ 80%.

Turning to `CCSc1cccnc1-c1cn(-c2cccc(C(F)(F)F)c2)nn1` [Compound P14], the percent effect (mortality or growth inhibition) at 200 ppm in series [2] and in series [6] was ≥ 80% each time. Besides, in series [3], the mortality at 200 ppm was ≥ 80%. The pest or weed control at 500 ppm in series [4] is ≥ 70%. For the same compound, the effect (mortality or growth inhibition) at 200 ppm in series [7] is ≥ 80%.

In turn, `CCS(=O)(=O)c1cccnc1-c1cc(-c2cc(C(F)(F)F)ccn2)n(C)n1` [Compound P30] registered a melting point of 171 to 173 °C.

As to `CCS(=O)(=O)c1cc(C(F)(F)F)cnc1-c1cn(-c2ccc(C(F)(F)F)nc2)nn1` [Compound P22], the percent control (mortality, anti-feedant effect or growth inhibition) at 200 ppm in series [1] is ≥ 80%. The pest or weed control at 500 ppm in series [4] is ≥ 70%. Also, the percent effect (mortality or growth inhibition) at 200 ppm in series [6] is ≥ 80%. The effect (mortality or growth inhibition) at 200 ppm in series [7] was ≥ 80%.

`CCSc1ccc(Cl)nc1-c1cc(-c2cc(C(F)(F)F)ccn2)n(C)n1` [Compound P28] yielded a melting point of 138 to 140 °C.

On to `CCSc1cc(C(F)(F)F)cnc1-c1cn(-c2cncc(C(F)(F)F)c2)nn1` [Compound P21], for which the pest or weed control at 500 ppm in series [4] is ≥ 70%. Further, the effect (mortality or growth inhibition) at 200 ppm in series [7] is ≥ 80%.

The compound `CCS(=O)(=O)c1ccc(-n2cncn2)nc1-c1cc(-c2cc(C(F)(F)F)ccn2)n(C)n1` [Compound P31] gave a melting point of 238 to 240 °C.

For `CCS(=O)(=O)c1cccnc1-c1cn(-c2ccc(C(F)(F)F)cc2)nn1` [Compound P17, 3-ethylsulfonyl-2-[1-[4-(trifluoromethyl)phenyl]triazol-4-yl]pyridine], the percent effect (mortality or growth inhibition) at 200 ppm in series [2] and in series [6] was ≥ 80% throughout. Besides, the percent control (mortality, anti-feedant effect or growth inhibition) at 200 ppm in series [1] was ≥ 80%. For the same compound, the pest or weed control at 500 ppm in series [4] is ≥ 70%. For the same compound, the effect (mortality or growth inhibition) at 200 ppm in series [7] was ≥ 80%.

As for `CCS(=O)(=O)c1cc(C(F)(F)F)cnc1-c1noc(-c2ccc(C(F)(F)F)cc2)c1C` [Compound P8], the pest or weed control at 500 ppm in series [4] is ≥ 70%.

For `CCS(=O)(=O)c1cc(C(F)(F)F)cnc1-c1cn(-c2cncc(C(F)(F)F)c2)nn1` [Compound P23], in series [1], the percent control (mortality, anti-feedant effect or growth inhibition) at 200 ppm was ≥ 80%. Also, in series [4], the pest or weed control at 500 ppm is ≥ 70%. In addition, the percent effect (mortality, anti-feeding or growth inhibition) at 12.5 ppm in series [5] is ≥ 80%. Moreover, the effect (mortality or growth inhibition) at 200 ppm in series [7] is ≥ 80%.

As for `CCS(=O)(=O)c1cccnc1-c1cc(-c2ccc(C(F)(F)F)nc2)n(C)n1` [Compound P34, 3-ethylsulfonyl-2-[1-methyl-5-[6-(trifluoromethyl)-3-pyridyl]pyrazol-3-yl]pyridine], the melting point fell in the range of 160 to 162 °C.

Consider `CCS(=O)(=O)c1cc(C(F)(F)F)ccc1-c1nnc(-c2ccc(C(F)(F)F)nc2)o1` [Compound P7], for which, in series [4], the pest or weed control at 500 ppm was ≥ 70%.

In turn, `CCS(=O)(=O)c1ccc(Cl)nc1-c1cc(-c2cncc(C(F)(F)F)c2)n(C)n1` [Compound P37] registered a melting point of 152 to 153 °C.

The compound `CCSc1ccc(Cl)nc1-c1cc(-c2cncc(C(F)(F)F)c2)n(C)n1` [Compound P36] registered a melting point of 125 to 126 °C.

For the compound `CCSc1cccnc1-c1cn(-c2ccc(C(F)(F)F)nc2)nn1` [Compound P24], the pest or weed control at 500 ppm in series [4] was ≥ 70%. Further, the effect (mortality or growth inhibition) at 200 ppm in series [7] was ≥ 80%.

For `CCSc1cccnc1-c1cn(-c2ccc(C(F)(F)F)cc2)nn1` [Compound P16, 3-ethylsulfanyl-2-[1-[4-(trifluoromethyl)phenyl]triazol-4-yl]pyridine], the pest or weed control at 500 ppm in series [4] was ≥ 70%. Also, the percent effect (mortality or growth inhibition) at 200 ppm in series [6] was ≥ 80%.

With `CCS(=O)(=O)c1cc(C(F)(F)F)cnc1-c1nnc(-c2cc(C(F)(F)F)ccn2)o1` [Compound P5, 2-[3-ethylsulfonyl-5-(trifluoromethyl)-2-pyridyl]-5-[4-(trifluoromethyl)-2-pyridyl]-1,3,4-oxadiazole], in series [7], the effect (mortality or growth inhibition) at 200 ppm was ≥ 80%.

For the compound `CCS(=O)(=O)c1cc(-c2ccc(Cl)cc2)cnc1-c1cn(-c2cccc(C(F)(F)F)c2)nn1` [Compound P13, 5-(4-chlorophenyl)-3-ethylsulfonyl-2-[1-[3-(trifluoromethyl)phenyl]triazol-4-yl]pyridine], in series [1], the percent control (mortality, anti-feedant effect or growth inhibition) at 200 ppm was ≥ 80%. In series [4], the pest or weed control at 500 ppm is ≥ 70%. Besides, the percent effect (mortality or growth inhibition) at 200 ppm in series [6] was ≥ 80%. Besides, the effect (mortality or growth inhibition) at 200 ppm in series [7] is ≥ 80%.

Compound `CCSc1ccc(Cl)nc1-c1cc(-c2ccc(C(F)(F)F)nc2)n(C)n1` [Compound P32, 6-chloro-3-ethylsulfanyl-2-[1-methyl-5-[6-(trifluoromethyl)-3-pyridyl]pyrazol-3-yl]pyridine] displayed a melting point of 136 to 138 °C.

Compound `CCS(=O)(=O)c1ccc(-n2cncn2)nc1-c1cc(-c2cncc(C(F)(F)F)c2)n(C)n1` [Compound P39] displayed a melting point of 235 to 237 °C.

`CCS(=O)(=O)c1ccc(Cl)nc1-c1cc(-c2ccc(C(F)(F)F)nc2)n(C)n1` [Compound P33, 6-chloro-3-ethylsulfonyl-2-[1-methyl-5-[6-(trifluoromethyl)-3-pyridyl]pyrazol-3-yl]pyridine] displayed a melting point of 198 to 200 °C.
